# Test results taken from the supplement of paper PMC10307832.
# What was measured:
# Test in all cases: relative viability (nuclei count vs DMSO), 5 days (fraction); higher = more cells survive
# PC-3 [JPC-3] = tested on: PC-3 [JPC-3]
# Summary of the method: (§1)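 Dosing by pin tool came one day after lung cancer cell lines were seeded in 1536-well plates, using either one drug or a fixed anchor-drug dose plus five library-drug doses (not always all listed) in √10 steps. After 5 days, nuclei were counted on 4× images. Relative viability is treated-well nuclei count divided by vehicle-well nuclei count, and values are medians of duplicate plates.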
# PC-14 = tested on: PC-14
# Summary of the method: as §1
# NCI-H1666 = tested on: NCI-H1666
# Summary of the method: as §1
# NCI-H460 = tested on: NCI-H460
# Summary of the method: as §1
# NCI-H2347 = tested on: NCI-H2347
# Summary of the method: as §1
# SW 1573 = tested on: SW 1573
# Summary of the method: as §1
# NCI-H2126 = tested on: NCI-H2126
# Summary of the method: as §1
# NCI-H1975 = tested on: NCI-H1975
# Summary of the method: as §1
# NCI-H647 = tested on: NCI-H647
# Summary of the method: as §1
# LCLC-97TM1 = tested on: LCLC-97TM1
# Summary of the method: as §1
# SK-LU-1 = tested on: SK-LU-1
# Summary of the method: as §1
# NCI-H2170 = tested on: NCI-H2170
# Summary of the method: as §1
# NCI-H1793 = tested on: NCI-H1793
# Summary of the method: as §1
# NCI-H2009 = tested on: NCI-H2009
# Summary of the method: as §1
# EMC-BAC-2 = tested on: EMC-BAC-2
# Summary of the method: as §1
# ABC-1 = tested on: ABC-1
# Summary of the method: as §1
# NCI-H1755 = tested on: NCI-H1755
# Summary of the method: as §1
# NCI-H1355 = tested on: NCI-H1355
# Summary of the method: as §1
# NCI-H1993 = tested on: NCI-H1993
# Summary of the method: as §1
# NCI-H520 = tested on: NCI-H520
# Summary of the method: as §1
# NCI-H727 = tested on: NCI-H727
# Summary of the method: as §1
# NCI-H441 = tested on: NCI-H441
# Summary of the method: as §1
# NCI-H1944 = tested on: NCI-H1944
# Summary of the method: as §1
smiles,measurement,setting,value
Cc1cnc(-c2cnc(NCCNc3ccc(C#N)cn3)nc2-c2ccc(Cl)cc2Cl)[nH]1 + CS(=O)(=O)N1CCN(Cc2cc3nc(-c4cccc5[nH]ncc45)nc(N4CCOCC4)c3s2)CC1 [Pictilisib] (partner 1 µM),relative viability,PC-3 [JPC-3]; first compound 0.08 µM,0.772
same,relative viability,PC-3 [JPC-3]; first compound 0.253 µM,0.666
same,relative viability,PC-3 [JPC-3]; first compound 0.8 µM,0.798
same,relative viability,PC-3 [JPC-3]; first compound 2.53 µM,0.79
same,relative viability,PC-14; first compound 0.08 µM,0.662
same,relative viability,PC-14; first compound 0.253 µM,0.775
same,relative viability,PC-14; first compound 0.8 µM,0.55
same,relative viability,PC-14; first compound 2.53 µM,0.645
same,relative viability,NCI-H1666; first compound 0.08 µM,0.434
same,relative viability,NCI-H1666; first compound 0.253 µM,0.295
same,relative viability,NCI-H1666; first compound 0.8 µM,0.332
same,relative viability,NCI-H1666; first compound 2.53 µM,0.589
same,relative viability,NCI-H460; first compound 0.08 µM,0.243
same,relative viability,NCI-H460; first compound 0.253 µM,0.378
same,relative viability,NCI-H460; first compound 0.8 µM,0.318
same,relative viability,NCI-H460; first compound 2.53 µM,0.504
same,relative viability,NCI-H2347; first compound 0.08 µM,0.931
same,relative viability,NCI-H2347; first compound 0.253 µM,0.416
same,relative viability,NCI-H2347; first compound 0.8 µM,0.698
same,relative viability,NCI-H2347; first compound 2.53 µM,0.6
same,relative viability,SW 1573; first compound 0.08 µM,0.487
same,relative viability,SW 1573; first compound 0.253 µM,0.492
same,relative viability,SW 1573; first compound 0.8 µM,0.552
same,relative viability,SW 1573; first compound 2.53 µM,0.327
same,relative viability,NCI-H2126; first compound 0.08 µM,0.512
same,relative viability,NCI-H2126; first compound 0.253 µM,0.468
same,relative viability,NCI-H2126; first compound 0.8 µM,0.494
same,relative viability,NCI-H2126; first compound 2.53 µM,0.559
same,relative viability,NCI-H1975; first compound 0.08 µM,0.328
same,relative viability,NCI-H1975; first compound 0.253 µM,0.297
same,relative viability,NCI-H1975; first compound 0.8 µM,0.299
same,relative viability,NCI-H1975; first compound 2.53 µM,0.338
same,relative viability,NCI-H647; first compound 0.08 µM,0.451
same,relative viability,NCI-H647; first compound 0.253 µM,0.45
same,relative viability,NCI-H647; first compound 0.8 µM,0.366
same,relative viability,NCI-H647; first compound 2.53 µM,0.458
same,relative viability,LCLC-97TM1; first compound 0.08 µM,0.231
same,relative viability,LCLC-97TM1; first compound 0.253 µM,0.234
same,relative viability,LCLC-97TM1; first compound 0.8 µM,0.158
same,relative viability,LCLC-97TM1; first compound 2.53 µM,0.172
same,relative viability,SK-LU-1; first compound 0.08 µM,0.701
same,relative viability,SK-LU-1; first compound 0.253 µM,0.604
same,relative viability,SK-LU-1; first compound 0.8 µM,0.623
same,relative viability,SK-LU-1; first compound 2.53 µM,0.754
same,relative viability,NCI-H2170; first compound 0.08 µM,0.29
same,relative viability,NCI-H2170; first compound 0.253 µM,0.307
same,relative viability,NCI-H2170; first compound 0.8 µM,0.261
same,relative viability,NCI-H2170; first compound 2.53 µM,0.318
same,relative viability,NCI-H1793; first compound 0.08 µM,0.315
same,relative viability,NCI-H1793; first compound 0.253 µM,0.351
same,relative viability,NCI-H1793; first compound 0.8 µM,0.412
same,relative viability,NCI-H1793; first compound 2.53 µM,0.596
same,relative viability,NCI-H2009; first compound 0.08 µM,0.877
same,relative viability,NCI-H2009; first compound 0.253 µM,0.81
same,relative viability,NCI-H2009; first compound 0.8 µM,0.814
same,relative viability,NCI-H2009; first compound 2.53 µM,0.732
same,relative viability,EMC-BAC-2; first compound 0.08 µM,0.579
same,relative viability,EMC-BAC-2; first compound 0.253 µM,0.525
same,relative viability,EMC-BAC-2; first compound 0.8 µM,0.515
same,relative viability,EMC-BAC-2; first compound 2.53 µM,0.567
same,relative viability,ABC-1; first compound 0.08 µM,1
same,relative viability,ABC-1; first compound 0.253 µM,0.584
same,relative viability,ABC-1; first compound 0.8 µM,0.75
same,relative viability,ABC-1; first compound 2.53 µM,0.744
same,relative viability,NCI-H1755; first compound 0.08 µM,0.507
same,relative viability,NCI-H1755; first compound 0.253 µM,0.411
same,relative viability,NCI-H1755; first compound 0.8 µM,0.386
same,relative viability,NCI-H1755; first compound 2.53 µM,0.559
same,relative viability,NCI-H1355; first compound 0.08 µM,0.442
same,relative viability,NCI-H1355; first compound 0.253 µM,0.366
same,relative viability,NCI-H1355; first compound 0.8 µM,0.399
same,relative viability,NCI-H1355; first compound 2.53 µM,0.542
same,relative viability,NCI-H1993; first compound 0.08 µM,0.92
same,relative viability,NCI-H1993; first compound 0.253 µM,0.911
same,relative viability,NCI-H1993; first compound 0.8 µM,0.87
same,relative viability,NCI-H1993; first compound 2.53 µM,0.806
same,relative viability,NCI-H520; first compound 0.08 µM,0.286
same,relative viability,NCI-H520; first compound 0.253 µM,0.336
same,relative viability,NCI-H520; first compound 0.8 µM,0.346
same,relative viability,NCI-H520; first compound 2.53 µM,0.497
same,relative viability,NCI-H727; first compound 0.08 µM,0.462
same,relative viability,NCI-H727; first compound 0.253 µM,0.259
same,relative viability,NCI-H727; first compound 0.8 µM,0.378
same,relative viability,NCI-H727; first compound 2.53 µM,0.435
same,relative viability,NCI-H441; first compound 0.08 µM,0.486
same,relative viability,NCI-H441; first compound 0.253 µM,0.376
same,relative viability,NCI-H441; first compound 0.8 µM,0.428
same,relative viability,NCI-H441; first compound 2.53 µM,0.553
same,relative viability,NCI-H1944; first compound 0.08 µM,0.342
same,relative viability,NCI-H1944; first compound 0.8 µM,0.334
same,relative viability,NCI-H1944; first compound 2.53 µM,0.38
